Legend:
[1] = biological target: T1, GABA-A receptor; alpha-5/beta-3/gamma-2 (Homo sapiens, UniProt P18507+P28472+P31644); test: Displacement of [3H]Ro151788 from human recombinant alpha5beta3gamma2 GABAA receptor stably expressed in HEK293 cell membrane assessed as inhibition constant by radioligand binding assay; assay type: cell membranes
T1 sequence (P18507 whole entry): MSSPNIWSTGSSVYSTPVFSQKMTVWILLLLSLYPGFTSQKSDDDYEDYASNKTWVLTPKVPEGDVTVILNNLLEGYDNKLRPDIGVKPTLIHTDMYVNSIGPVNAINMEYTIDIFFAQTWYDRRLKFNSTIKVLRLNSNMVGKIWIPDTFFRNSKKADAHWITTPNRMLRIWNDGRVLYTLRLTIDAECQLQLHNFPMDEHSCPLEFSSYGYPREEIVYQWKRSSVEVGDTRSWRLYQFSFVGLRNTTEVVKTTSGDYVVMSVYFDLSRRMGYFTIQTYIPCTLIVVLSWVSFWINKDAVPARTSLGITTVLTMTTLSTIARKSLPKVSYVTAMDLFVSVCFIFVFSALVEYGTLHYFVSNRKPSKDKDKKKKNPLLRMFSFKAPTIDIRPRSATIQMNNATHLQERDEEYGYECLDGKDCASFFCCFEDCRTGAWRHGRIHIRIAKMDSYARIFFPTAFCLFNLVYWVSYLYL
T1 sequence (P28472 whole entry): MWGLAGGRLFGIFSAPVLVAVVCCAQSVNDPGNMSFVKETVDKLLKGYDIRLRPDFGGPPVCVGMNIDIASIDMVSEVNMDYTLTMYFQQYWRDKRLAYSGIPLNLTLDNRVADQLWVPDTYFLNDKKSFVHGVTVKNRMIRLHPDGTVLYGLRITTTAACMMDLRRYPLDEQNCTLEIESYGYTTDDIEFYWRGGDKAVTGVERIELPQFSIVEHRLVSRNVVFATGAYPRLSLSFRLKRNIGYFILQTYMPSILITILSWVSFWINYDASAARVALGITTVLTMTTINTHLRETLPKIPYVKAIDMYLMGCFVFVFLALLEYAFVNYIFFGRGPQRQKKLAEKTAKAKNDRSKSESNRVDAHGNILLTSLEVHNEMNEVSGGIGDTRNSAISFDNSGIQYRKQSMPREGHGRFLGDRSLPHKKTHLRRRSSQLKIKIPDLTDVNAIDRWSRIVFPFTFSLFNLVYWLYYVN
T1 sequence (P31644 whole entry): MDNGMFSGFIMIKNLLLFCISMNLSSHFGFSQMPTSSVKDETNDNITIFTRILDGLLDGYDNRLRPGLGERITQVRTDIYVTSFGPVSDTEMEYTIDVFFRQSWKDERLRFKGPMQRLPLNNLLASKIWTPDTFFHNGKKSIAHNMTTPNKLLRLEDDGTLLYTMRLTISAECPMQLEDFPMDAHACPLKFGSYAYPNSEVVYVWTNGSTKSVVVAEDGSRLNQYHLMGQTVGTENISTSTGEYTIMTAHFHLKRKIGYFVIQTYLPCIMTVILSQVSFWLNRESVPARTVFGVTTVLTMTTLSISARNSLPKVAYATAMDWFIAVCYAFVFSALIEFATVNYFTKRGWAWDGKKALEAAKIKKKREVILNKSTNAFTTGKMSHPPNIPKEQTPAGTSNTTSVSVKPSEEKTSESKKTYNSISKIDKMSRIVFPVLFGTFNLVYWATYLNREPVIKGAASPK

[2] = biological target: T2, GABA-A receptor; alpha-5/beta-3/gamma-2 (Homo sapiens) (UniProt P18507+P28472+P31644); test: Negative allosteric modulation activity at human recombinant alpha5beta3gamma2 GABAA receptor stably expressed in HEK293 cells assessed as modulation at alpha5 subunit at 1 uM by Patch clamp method; assay type: cell-based; details: filed as negative allosteric modulator
[3] = biological target: T2, GABA-A receptor; alpha-5/beta-3/gamma-2 (Homo sapiens); test: Negative allosteric modulation activity at human recombinant alpha5beta3gamma2 GABAA receptor stably expressed in HEK293 cells assessed as modulation at alpha5 subunit at 10 uM by Patch clamp method; assay type: cell-based; details: filed as negative allosteric modulator
[4] = biological target: GABA-A receptor; alpha-1/beta-3/gamma-2 (Homo sapiens) (UniProt P14867+P18507+P28472); test: Negative allosteric modulation activity at human recombinant alpha1beta3gamma2 GABAA receptor stably expressed in HEK293 cells assessed as modulation at alpha1 subunit at 10 uM by Patch clamp method; assay type: cell-based; details: filed as negative allosteric modulator
[5] = biological target: Voltage-gated inwardly rectifying potassium channel KCNH2 (Homo sapiens, UniProt Q12809); test: Inhibition of hERG expressed in CHO cells stably at -80 mV holding potential by automated patch clamp method; assay type: toxicity, cell-based
Voltage-gated inwardly rectifying potassium channel KCNH2, sequence (Q12809 whole entry): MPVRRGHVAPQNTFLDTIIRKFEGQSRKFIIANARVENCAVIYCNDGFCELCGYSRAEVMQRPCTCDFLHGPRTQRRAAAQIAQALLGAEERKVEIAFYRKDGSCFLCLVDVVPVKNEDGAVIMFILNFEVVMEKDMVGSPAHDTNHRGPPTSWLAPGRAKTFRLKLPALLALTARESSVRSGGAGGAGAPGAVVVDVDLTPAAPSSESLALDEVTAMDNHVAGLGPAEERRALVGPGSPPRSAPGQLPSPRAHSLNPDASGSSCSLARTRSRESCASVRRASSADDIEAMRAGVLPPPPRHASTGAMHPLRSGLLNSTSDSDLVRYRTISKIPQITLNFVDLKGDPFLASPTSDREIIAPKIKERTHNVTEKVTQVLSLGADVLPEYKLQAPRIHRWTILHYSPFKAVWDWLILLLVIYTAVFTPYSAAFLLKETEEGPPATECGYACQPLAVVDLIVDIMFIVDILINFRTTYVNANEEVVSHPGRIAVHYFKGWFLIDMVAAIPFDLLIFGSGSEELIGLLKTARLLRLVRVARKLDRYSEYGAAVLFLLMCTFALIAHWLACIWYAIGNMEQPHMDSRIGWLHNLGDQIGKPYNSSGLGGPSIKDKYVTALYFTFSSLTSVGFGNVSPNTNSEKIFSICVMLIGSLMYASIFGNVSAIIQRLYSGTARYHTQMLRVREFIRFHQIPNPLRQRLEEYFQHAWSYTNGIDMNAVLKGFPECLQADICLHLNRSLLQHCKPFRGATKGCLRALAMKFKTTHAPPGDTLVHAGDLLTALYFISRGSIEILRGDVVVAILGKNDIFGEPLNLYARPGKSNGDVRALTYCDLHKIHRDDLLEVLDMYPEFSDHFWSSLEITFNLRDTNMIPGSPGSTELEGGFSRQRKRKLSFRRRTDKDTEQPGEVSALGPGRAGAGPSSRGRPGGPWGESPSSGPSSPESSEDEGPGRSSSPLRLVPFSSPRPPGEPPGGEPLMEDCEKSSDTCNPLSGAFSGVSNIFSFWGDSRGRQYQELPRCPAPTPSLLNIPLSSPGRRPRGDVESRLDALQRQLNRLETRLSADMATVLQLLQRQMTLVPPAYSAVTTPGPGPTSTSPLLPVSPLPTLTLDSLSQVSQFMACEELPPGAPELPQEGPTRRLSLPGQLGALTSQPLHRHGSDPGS

[6] = Metabolic stability in human liver microsomes assessed as intrinsic clearance at 2.5 uM; assay type: ADME, Microsome; details: read-out: CLH
[7] = Metabolic stability in Wistar rat liver microsomes assessed as intrinsic clearance at 2.5 uM; assay type: ADME, Microsome; details: read-out: CLH

Row | SMILES | Ki [1] [nM] | Activity [2] [%] | Activity [3] [%] | Activity [4] [%] | IC50 [5] [nM] | microsomal CLint at 2.5 µM [6] [µL/min/mg] | microsomal CLint at 2.5 µM [7] [µL/min/mg]
1 | Cc1onc(-c2ccc(F)cc2)c1COc1ccc2c(n1)CCN(C(C)C)C2=O | 13 | -9 | -25 | -2 | 4400 | 16 | 214
2 | Cc1onc(-c2ccc(F)cc2)c1COc1ccc2c(n1)CCN(C(=O)CCS(C)(=O)=O)C2 | 30 | -16 | -35 | – | 4200 | 9 | 44
3 | Cc1onc(-c2ccc(F)cc2)c1COc1ccc(C(=O)N2CCS(=O)(=O)CC2)cn1 [BASMISANIL] | 4.4 | -24 | -25 | -2 | – | 7.5 | 22
4 | Cc1onc(-c2ccc(F)cc2)c1COc1ccc2c(c1)OCC(=O)N2C | 14 | -16 | – | – | – | 33 | 381
5 | Cc1onc(-c2ccc(F)cc2)c1COc1cc2c(cn1)C(=O)NCC2 | 0.49 | 15 | 6 | – | – | – | –
6 | Cc1onc(-c2ccc(F)cc2)c1COc1ccc2c(n1)CCN(C(=O)N1CCCC1)C2 | 7.3 | -12 | -36 | – | 10000 | 45 | 279
7 | Cc1onc(-c2ccc(F)cc2)c1COc1ccc2c(n1)CCN(C)C2=O | 2.8 | -21 | -31 | -8 | 3800 | 28 | 404
8 | Cc1onc(-c2ccc(F)cc2)c1COc1ccc2c(n1)CCN(C(=O)N(C)C)C2 | 2.7 | -22 | -42 | – | 8300 | 49 | 356
9 | Cc1onc(-c2ccc(F)cc2)c1COc1ccc2c(c1)CCNC2=O | 10 | -6 | -7 | – | – | 10 | 108
10 | Cc1onc(-c2ccc(F)cc2)c1COc1ccc2c(n1)CCN(C(=O)C1CCC1)C2 | 13 | -7 | -26 | – | > 10000 | 57 | 400
11 | Cc1onc(-c2ccc(F)cc2)c1COc1ccc2c(n1)CCN(C(=O)C1CCCO1)C2 (centres undefined) | 9.9 | – | – | – | – | 42 | 210
12 | Cc1onc(-c2ccc(F)cc2)c1COc1ccc2c(n1)CCN(C(=O)C1CCS(=O)(=O)CC1)C2 | 3.6 | -22 | -38 | -10 | 2900 | 10 | 36
13 | Cc1onc(-c2ccc(F)cc2)c1COc1ccc2c(n1)CCN(C(=O)c1ccno1)C2 | 4.6 | -13 | -32 | – | 6400 | 67 | 245
14 | Cc1onc(-c2ccc(F)cc2)c1COc1ccc2c(c1)CCC(=O)N2C | 13 | -6 | -10 | – | – | – | –
15 | CCC(=O)N1CCc2nc(OCc3c(C)nnn3-c3ccc(F)cc3)ccc2C1 | 46 | – | – | – | – | 48 | 92
16 | Cc1onc(-c2ccc(F)cc2)c1COc1ccc2c(n1)CCN(CC1CCCO1)C2=O (centres undefined) | 23 | -29 | -28 | -6 | 2900 | – | –
17 | Cc1onc(-c2ccc(F)cc2)c1COc1ccc2c(n1)CCN(C(=O)N1CCOCC1)C2 | 4.6 | -15 | -39 | – | 9100 | 32 | 142
18 | Cc1onc(-c2ccc(F)cc2)c1COc1ccc2c(n1)CCN(CC1CCCS1(=O)=O)C2=O (centres undefined) | 23 | -23 | -36 | -12 | 1800 | – | –
19 | CC(=O)N1CCc2nc(OCc3c(-c4ccc(F)cc4)noc3C)ccc2C1 | 1.9 | -19 | -16 | – | 5300 | 74 | 301
20 | Cc1nnn(-c2ccc(F)cc2)c1COc1ccc2c(n1)CCN(C(=O)C1CC1)C2 | 49 | – | – | – | – | 53 | 99
21 | Cc1onc(-c2ccc(F)cc2)c1COc1ccc2c(n1)CCN(Cc1ccco1)C2=O | 21 | -14 | -31 | – | 3500 | 85 | 365
22 | Cc1onc(-c2ccc(F)cc2)c1COc1ccc2c(n1)CCN(Cc1ccno1)C2=O | 9 | -29 | -35 | -10 | 2500 | – | –
23 | Cc1onc(-c2ccc(F)cc2)c1COc1ccc2c(n1)CCN(C(=O)C1CC1)C2 | 8.3 | -4 | -34 | – | 5800 | 71 | 388
24 | Cc1onc(-c2ccc(F)cc2)c1COc1ccc2c(n1)CCN(C(=O)N1CCCCC1)C2 | 49 | – | – | – | 10000 | 107 | 359

Reference: ChEMBL document CHEMBL5154916, “Multiparameter Optimization of Naphthyridine Derivatives as Selective α5-GABAA Receptor Negative Allosteric Modulators” (J Med Chem, 2022)
